{"source": "PubChem BioAssay AID179", "about": "(DTP/NCI, 2004)", "system": "CEM cells HIV-1 protection, formazan growth assay", "test": "NCI AIDS Antiviral Assay", "settings": "for IC50: measured here: growth of uninfected CEM cells", "summary_of_the_method": "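Human CEM cells, uninfected and HIV-1-infected, exposed to five drug concentrations; growth measured by soluble formazan assay and scored as percent protection from infection, with protecting compounds retested.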", "note": "Activity calls are given as the source filed them.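 How the source made its calls: active means compounds giving half or more protection of infected cells from virus-caused growth loss, again on retest; inactive means the rest.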", "data": [{"smiles": "O=C1O/C(=C(\\Br)c2ccc([N+](=O)[O-])cc2)c2ccccc21", "values": [{"measurement": "EC50", "result": "> 200", "unit": "µM"}, {"measurement": "IC50", "result": 16.6, "unit": "µM"}]}, {"smiles": "O=S(=O)(c1ccccc1)C(Br)c1ccccc1", "note": "(stereo not given)", "values": [{"measurement": "EC50", "result": "> 158", "unit": "µM"}, {"measurement": "IC50", "result": "> 158", "unit": "µM"}]}, {"smiles": "O=C(O)/C=C\\C(=O)Nc1ccc(SSc2ccc(NC(=O)/C=C\\C(=O)O)cc2)cc1", "values": [{"measurement": "EC50", "result": 182, "unit": "µM"}, {"measurement": "IC50", "result": "> 200", "unit": "µM"}]}, {"smiles": "CC1=C(c2cc(C(=O)Nc3cccc(C(F)(F)F)c3)nc(NC#N)n2)Sc2ccccc2N1", "values": [{"measurement": "outcome", "result": "inactive"}]}, {"smiles": "COc1ccc(C(C(N)=O)N2CCCCC2)cc1", "note": "(stereo not given)", "values": [{"measurement": "EC50", "result": "> 200", "unit": "µM"}, {"measurement": "IC50", "result": "> 200", "unit": "µM"}]}, {"smiles": "OC(c1ccccn1)c1c(Cl)cccc1Cl", "note": "(stereo not given)", "values": [{"measurement": "EC50", "result": "> 200", "unit": "µM"}, {"measurement": "IC50", "result": "> 200", "unit": "µM"}]}, {"smiles": "CCOC(=O)C1C(=O)[C@H](C(=O)OC)C2CCCC3CCCC1N32", "note": "(stereo not given in full)", "values": [{"measurement": "EC50", "result": "> 200", "unit": "µM"}, {"measurement": "IC50", "result": "> 200", "unit": "µM"}]}, {"smiles": "COC(=O)C1ON2C(C1C(=O)OC)C(C)(C)N(O)C2(C)C", "note": "(stereo not given)", "values": [{"measurement": "EC50", "result": "> 200", "unit": "µM"}, {"measurement": "IC50", "result": "> 200", "unit": "µM"}]}, {"smiles": "COc1ccc(-c2cc(=O)c3c(O)cc(OC)cc3o2)cc1", "values": [{"measurement": "EC50", "result": 70.8, "unit": "µM"}, {"measurement": "IC50", "result": 74.1, "unit": "µM"}]}, {"smiles": "O=C(O)C1CC(C(=O)O)SS1", "note": "(stereo not given)", "values": [{"measurement": "EC50", "result": "> 1290", "unit": "µM"}, {"measurement": "IC50", "result": "> 1290", "unit": "µM"}]}, {"smiles": "CCCCCCCCCCCCCCCCCCn1[se]c2ccccc2c1=O", "values": [{"measurement": "EC50", "result": "> 3.24", "unit": "µM"}, {"measurement": "IC50", "result": "> 3.24", "unit": "µM"}]}, {"smiles": "CCCCCCCCCCCCC(Br)C(=O)OCC1OC(n2cc(C)c(=O)[nH]c2=O)CC1O", "note": "(stereo not given)", "values": [{"measurement": "EC50", "result": "> 200", "unit": "µM"}]}, {"smiles": "Cc1ccc2c(c1)C(C(=O)N[C@@H]1C(=O)N3[C@@H]1SC(C)(C)[C@@H]3C(=O)O)OCCC2", "note": "(stereo not given in full)", "values": [{"measurement": "EC50", "result": "> 200", "unit": "µM"}, {"measurement": "IC50", "result": "> 200", "unit": "µM"}]}, {"smiles": "COc1ccccc1N=Nc1c(S(=O)(=O)O)cc2cc(NC(=O)Nc3ccc4c(O)c(N=Nc5c(N)ccc6cc(S(=O)(=O)O)ccc56)c(S(=O)(=O)O)cc4c3)ccc2c1O", "values": [{"measurement": "outcome", "result": "active"}]}, {"smiles": "COC(=O)[C@@]12OC[C@]34[C@H]([C@@H](O)[C@@H]1O)[C@@]1(C)CC(=O)C(O)=C(C)[C@@H]1C[C@H]3OC(=O)[C@H](OC(=O)C(N)Cc1ccccc1)[C@@H]24", "note": "(stereo not given in full)", "values": [{"measurement": "outcome", "result": "inactive"}]}, {"smiles": "COc1ccc(OC)c(-c2csc(=O)s2)c1", "values": [{"measurement": "EC50", "result": "> 269", "unit": "µM"}, {"measurement": "IC50", "result": "> 269", "unit": "µM"}]}, {"smiles": "CCN(CC)S(=O)(=O)c1ccc(Nc2nc(Cl)nc(Cl)n2)cc1", "values": [{"measurement": "EC50", "result": "> 200", "unit": "µM"}, {"measurement": "IC50", "result": "> 200", "unit": "µM"}]}, {"smiles": "[O-]/[N+]1=[N+](\\[O-])c2ccccc2COCc2ccccc21", "values": [{"measurement": "outcome", "result": "inactive"}]}, {"smiles": "CCCC(=O)n1[nH]c(=O)n(-c2ccc(Cl)cc2)c1=O", "values": [{"measurement": "EC50", "result": "> 200", "unit": "µM"}, {"measurement": "IC50", "result": "> 200", "unit": "µM"}]}, {"smiles": "Cc1[nH]c2ccccc2c1C(c1c(C)[nH]c2ccccc12)c1c(C)[nH]c2ccccc12", "values": [{"measurement": "EC50", "result": 0.0631, "unit": "µM"}, {"measurement": "IC50", "result": 58.9, "unit": "µM"}]}, {"smiles": "COc1ccc(-c2cc(-c3cc(OC)c(OC)c(OC)c3)cc(-c3cc4ccccc4oc3=O)n2)cc1", "values": [{"measurement": "EC50", "result": "> 200", "unit": "µM"}, {"measurement": "IC50", "result": 155, "unit": "µM"}]}, {"smiles": "C/C=C/[C@H](O[Si](C)(C)C(C)(C)C)[C@@H](O)/C=C/C(=O)OCC", "values": [{"measurement": "EC50", "result": "> 200", "unit": "µM"}, {"measurement": "IC50", "result": 28.8, "unit": "µM"}]}, {"smiles": "COc1ccc(/C=C2\\N=C(N3CCCC(CO)C3)NC2=O)cc1", "note": "(stereo not given)", "values": [{"measurement": "EC50", "result": "> 200", "unit": "µM"}, {"measurement": "IC50", "result": "> 200", "unit": "µM"}]}, {"smiles": "NC1=NS(=O)(=O)Nc2nc(-c3ccc([N+](=O)[O-])o3)[nH]c21", "values": [{"measurement": "EC50", "result": "> 200", "unit": "µM"}, {"measurement": "IC50", "result": 10, "unit": "µM"}]}, {"smiles": "CC(C)(C)OC(=O)N(CCCCN(CCCNC(=O)C(F)(F)F)C(=O)OC(C)(C)C)CCCNC(=O)C(F)(F)F", "values": [{"measurement": "outcome", "result": "inactive"}]}, {"smiles": "CCOC(=O)c1nc2ccccc2nc1Oc1cc(OC)cc(OC)c1", "values": [{"measurement": "EC50", "result": "> 200", "unit": "µM"}, {"measurement": "IC50", "result": "> 200", "unit": "µM"}]}, {"smiles": "Cc1cc2cc(Cl)ccc2nc1C(=O)c1ccccc1", "values": [{"measurement": "EC50", "result": "> 2.57", "unit": "µM"}, {"measurement": "IC50", "result": "> 2.57", "unit": "µM"}]}, {"smiles": "O=C(/C=C/c1ccc(Cl)cc1)c1ccccc1", "values": [{"measurement": "EC50", "result": "> 56.2", "unit": "µM"}, {"measurement": "IC50", "result": 11.2, "unit": "µM"}]}, {"smiles": "O=c1nc(-c2ccccc2)scc1-c1ccccc1", "values": [{"measurement": "EC50", "result": "> 38", "unit": "µM"}, {"measurement": "IC50", "result": "> 38", "unit": "µM"}]}, {"smiles": "CCOC(=O)C(c1ccsc1)C(C(=O)OCC)c1cccs1", "note": "(stereo not given)", "values": [{"measurement": "EC50", "result": "> 200", "unit": "µM"}, {"measurement": "IC50", "result": "> 200", "unit": "µM"}]}, {"smiles": "C/C(=N\\N)C(CN1CCOCC1)C(c1ccccc1)c1c(O)c2ccccc2oc1=O", "note": "(stereo not given)", "values": [{"measurement": "EC50", "result": "> 89.1", "unit": "µM"}, {"measurement": "IC50", "result": 85.1, "unit": "µM"}]}, {"smiles": "C/C(=N/Nc1ccc([N+](=O)[O-])cc1[N+](=O)[O-])c1ccc(Sc2ccc(/C(C)=N/Nc3ccc([N+](=O)[O-])cc3[N+](=O)[O-])cc2)cc1", "values": [{"measurement": "EC50", "result": "> 50.1", "unit": "µM"}, {"measurement": "IC50", "result": "> 50.1", "unit": "µM"}]}, {"smiles": "CCCC(=O)N1CCN(c2ccc3c(c2)OC(C)O3)CC1", "note": "(stereo not given)", "values": [{"measurement": "EC50", "result": "> 200", "unit": "µM"}, {"measurement": "IC50", "result": "> 200", "unit": "µM"}]}, {"smiles": "CN1CCN(Cc2cc3c(nn2)-c2ccccc2C3=O)CC1", "values": [{"measurement": "EC50", "result": "> 200", "unit": "µM"}, {"measurement": "IC50", "result": 110, "unit": "µM"}]}, {"smiles": "N#Cc1cccc(C2ON=C(c3ccc([N+](=O)[O-])cc3)N2C23CC4CC(CC(C4)C2)C3)c1", "note": "(stereo not given)", "values": [{"measurement": "EC50", "result": "> 200", "unit": "µM"}, {"measurement": "IC50", "result": "> 200", "unit": "µM"}]}, {"smiles": "CC(/C=N/N(C)C1=NCCCCN1)=N/N(C)C1=NCCCCN1", "values": [{"measurement": "EC50", "result": "> 200", "unit": "µM"}, {"measurement": "IC50", "result": "> 200", "unit": "µM"}]}, {"smiles": "CN(C)C=C1C(Cl)=C(C=O)CC(C=O)=C1Cl", "values": [{"measurement": "outcome", "result": "inactive"}]}, {"smiles": "COc1ccc(S(=O)(=O)c2nnc(S(=O)(=O)Cc3ccccc3)s2)cc1", "values": [{"measurement": "EC50", "result": "> 200", "unit": "µM"}, {"measurement": "IC50", "result": 3.63, "unit": "µM"}]}, {"smiles": "COc1cc2c3c(c1)[nH]c(=S)n3C(=O)C(C)S2", "note": "(stereo not given)", "values": [{"measurement": "EC50", "result": "> 200", "unit": "µM"}, {"measurement": "IC50", "result": 141, "unit": "µM"}]}, {"smiles": "COc1cc(C[C@H]2C(=O)OC[C@@H]2C(=O)c2ccc(OC(C)C)c(O)c2)cc(OC)c1O", "values": [{"measurement": "EC50", "result": "> 2", "unit": "µM"}, {"measurement": "IC50", "result": 0.49, "unit": "µM"}]}, {"smiles": "Cc1cc(N=C2C=C(Nc3cc(C)on3)C(=O)c3ccccc32)no1", "values": [{"measurement": "EC50", "result": "> 11.2", "unit": "µM"}, {"measurement": "IC50", "result": "> 11.2", "unit": "µM"}]}]}
